# Results published in patent US8044094B2, “Agents for preventing and treating disorders connected to impaired neurotransmission” (DSM IP Assets B.V., priority 2004, dated 2011).
# Experiments:
# [1] = target: T1, MAO-A (Homo sapiens, UniProt P21397); test: MAO-A inhibition, Amplex Red Monoamine Oxidase Assay Kit, colorimetric; format: biochemical; details: substrate p-tyramine
# T1 construct: purchased Sigma M7316
# T1 sequence (P21397 1-527): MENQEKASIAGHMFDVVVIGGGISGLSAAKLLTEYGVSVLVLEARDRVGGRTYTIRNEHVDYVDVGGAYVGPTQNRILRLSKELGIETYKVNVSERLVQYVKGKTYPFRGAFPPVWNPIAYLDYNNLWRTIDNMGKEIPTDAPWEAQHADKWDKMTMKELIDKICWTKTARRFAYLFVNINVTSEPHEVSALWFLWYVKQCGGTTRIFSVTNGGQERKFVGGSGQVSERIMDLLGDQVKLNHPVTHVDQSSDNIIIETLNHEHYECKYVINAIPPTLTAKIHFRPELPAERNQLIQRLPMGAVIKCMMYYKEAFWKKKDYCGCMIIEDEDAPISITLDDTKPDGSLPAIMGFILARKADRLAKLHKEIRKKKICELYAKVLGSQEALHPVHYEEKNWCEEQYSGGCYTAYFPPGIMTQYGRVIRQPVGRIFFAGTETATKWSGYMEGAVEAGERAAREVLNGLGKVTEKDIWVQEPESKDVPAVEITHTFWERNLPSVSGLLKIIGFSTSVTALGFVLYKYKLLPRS
# Description: From a stock solution of 0.0405 g of racemic obliquin (92.5%; equal to 37.5 mg of pure compound) in 750 μl of dimethylsulfoxide (DMSO), working solutions were prepared with a concentration of obliquin of 4. 10^−4M in reaction buffer (0.05 M sodium phosphate, pH 7.4, 0.2% DMSO). The final concentrations of obliquin in the test system were 10^−4 M, 10^−5 M, 10^−6 M, 10^−7 M.
# For determining the inhibition of monoaminoxidases' activity, the Amplex Red Monoamine Oxidase Assay Kit (Molecular Probes Nr._A-12214, Colorimetric version) was conducted according to manufacturers instructions.
# As substrates for MAO-A enzyme (Sigma Nr. M7316) p-tyramine and as substrate for MAO-B enzyme (Sigma Nr. M7441) benzylamine were used. The concentration of MAO-A enzyme was 8 Units/ml, and that of MAO-B 4 Units/ml in the working solution.
# MAO-A and MAO-B Assay, Colorimetric Version:
# For the assay, 50 μl of each working solution (see above) were used. As control solution, the obliquin containing working solution was replaced by 50 μl of the reaction buffer.
# 50 μl of diluted MAO-A with a final concentration of 2 Units/ml and 50 μl of diluted MAO-B with a final concentration of 1 Unit/ml, respectively, were added.
# 100 μl of the Amplex solution containing horseradish peroxidase (2 U/ml) and the substrate tyramine (for MAO-A) or the substrate benzylamine (for MAO-B) were added.
# To allow a subtraction of the background absorption a mixture of 100 μl of the Amplex solution and 100 μl of the reaction buffer was measured as a “blank”.
# The samples were incubated at room temperature in the dark for 1 hour, and then the extinction at 535 nm determined in a Softmax Microplate photometer (Molecular Device).
# [2] = system: mice; test: Porsolt's swim test (Behavioural Despair Test); format: in vivo; details: for Duration of immobility ± Standard Error of Mean: 30 minutes before the test, last 4 of 6 minutes
# Description: The “Behavioural Despair Test” or “Porsolt's Forced Swim Test” is a validated animal model for depression (see T. Nagatsu, NeuroToxicology 2004, 25, 11-20, especially p. 16, right column in the middle, in combination with Porsolt et al., Arch. Int. Pharmacodyn. 1977, 229, 327-336). It responds to enhancement of the transmission of several neurotransmitters including serotonine, dopamine and noradrenaline.
# The test, which detects antidepressant activity, was carried out as described by Porsolt et al. in Arch. Int. Pharmacodyn. 1977, 229, 327-336. Mice which are forced to swim in a situation from which they cannot escape rapidly become immobile. Antidepressants decrease the duration of immobility.
# Mice were individually placed in a cylinder (Height=24 cm, Diameter=13 cm) containing 10 cm water (22° C.) from which they could not escape. The mice were placed in the water for 6 minutes and the duration of immobility during the last 4 minutes was measured.
# 10 mice were studied per each of the four groups. The test was performed blind, i.e. the person carrying out the experiment was different from the person injecting the mice and didn't thus know to which of the four groups each mouse belonged.
# Obliquin was evaluated at 3 doses each: at 10, 30, and 80 mg/kg body weight, administered intraperitonally 30 minutes before the test, and compared with a control group. The thus administered obliquin was dissolved in a saline solution containing 3 weight-% DMSO and 3 weight-% Tween® 80 (so called “vehicle”). To the control group the vehicle consisting of the saline solution containing 3 weight-% DMSO and 3 weight-% Tween® 80 was administered intraperitonally.
# Data were analyzed by comparing the treated groups with the control group using the unpaired Student's T tests and Analysis of Variance (ANOVA).
smiles,measurement,setting,value
"C=C(C)[C@H]1COc2cc3oc(=O)ccc3cc2O1 (racemic) [Obliquin, obliquin]",inhibition at 0.1 µM,[1]; obliquin 1 x 10^−7 M,2%
same,inhibition at 1 µM,[1]; obliquin 10 x 10^−7 M,2%
same,inhibition at 10 µM,[1]; obliquin 100 x 10^−7 M,6.5%
same,inhibition at 100 µM,[1]; obliquin 1000 x 10^−7 M,24.1%
same,Duration of immobility ± Standard Error of Mean,"[2]; mice, 10 mg/kg body weight i.p.",170.4 ± 11.1 s
same,Duration of immobility ± Standard Error of Mean,"[2]; mice, 30 mg/kg body weight i.p.",150.9 ± 9.6 s
same,Duration of immobility ± Standard Error of Mean,"[2]; mice, 80 mg/kg body weight i.p., p < 0.01 vs control",132.1 ± 10.5 s
same,Dose dependence of effect on immobility time,"[2]; mice, 10, 30, 80 mg/kg i.p., ANOVA p<0.05",significant dose dependent effect
same,Reduction of immobility time,"[2]; mice, highest dose group (80 mg/kg i.p.), vs control group",25%
